Consider 26 compounds from patent publication US8916551B2, “Heterocyclic compound and use thereof” (Takeda Pharmaceutical Company Limited, priority 2010, dated 2014).

T1 sequence (P42261 19-906 isoform P42261-2 limits assumed): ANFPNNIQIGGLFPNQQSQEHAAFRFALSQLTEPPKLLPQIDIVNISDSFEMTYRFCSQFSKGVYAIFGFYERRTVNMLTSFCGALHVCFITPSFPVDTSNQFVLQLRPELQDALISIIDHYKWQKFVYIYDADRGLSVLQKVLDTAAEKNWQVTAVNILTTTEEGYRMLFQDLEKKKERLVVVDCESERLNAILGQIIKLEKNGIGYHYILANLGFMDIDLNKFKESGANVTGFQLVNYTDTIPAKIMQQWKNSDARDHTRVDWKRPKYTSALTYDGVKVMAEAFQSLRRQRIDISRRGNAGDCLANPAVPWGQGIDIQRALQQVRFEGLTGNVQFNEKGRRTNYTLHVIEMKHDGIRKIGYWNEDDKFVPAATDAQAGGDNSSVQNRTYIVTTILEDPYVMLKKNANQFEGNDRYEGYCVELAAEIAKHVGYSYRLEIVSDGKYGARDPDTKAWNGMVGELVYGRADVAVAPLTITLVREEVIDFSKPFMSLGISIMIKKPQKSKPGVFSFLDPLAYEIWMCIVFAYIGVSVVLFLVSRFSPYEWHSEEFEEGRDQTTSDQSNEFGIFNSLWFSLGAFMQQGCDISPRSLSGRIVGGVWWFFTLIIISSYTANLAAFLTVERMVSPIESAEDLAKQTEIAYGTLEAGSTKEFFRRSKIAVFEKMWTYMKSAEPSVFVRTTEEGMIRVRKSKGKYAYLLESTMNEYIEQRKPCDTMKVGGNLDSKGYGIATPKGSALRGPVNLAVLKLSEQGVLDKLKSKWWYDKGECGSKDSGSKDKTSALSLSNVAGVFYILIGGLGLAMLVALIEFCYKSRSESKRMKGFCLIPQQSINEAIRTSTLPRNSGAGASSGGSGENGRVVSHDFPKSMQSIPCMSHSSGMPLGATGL
T1 sequence (Q9Y698 whole entry partner): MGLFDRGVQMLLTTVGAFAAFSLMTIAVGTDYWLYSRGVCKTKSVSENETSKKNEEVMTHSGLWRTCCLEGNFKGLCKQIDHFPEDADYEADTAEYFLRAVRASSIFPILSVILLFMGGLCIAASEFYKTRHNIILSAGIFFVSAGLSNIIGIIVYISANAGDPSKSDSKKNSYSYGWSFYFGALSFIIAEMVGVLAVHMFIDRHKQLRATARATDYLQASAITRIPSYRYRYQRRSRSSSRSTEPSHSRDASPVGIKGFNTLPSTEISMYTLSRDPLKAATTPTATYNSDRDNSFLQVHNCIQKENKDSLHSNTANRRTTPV

The first assay addresses T1, AMPA receptor (human GluR1 flip/stargazin expressed in CHO-K1 cells) (Homo sapiens, UniProt P42261).
T1 construct: expressed in transfected cells; host or cells: CHO-K1
Nature of the assay: AMPA receptor function enhancing activity using calcium influx as index. The following applies: test compound 30 μM with 3 mM glutamic acid, change in fluorescence level in 3 min, 100% = 3 mM glutamic acid + 300 μM cyclothiazide, 0% = 3 mM glutamic acid only. The assay is classed as cell-based. The source says:
Human GluR1 flip cDNA was amplified by PCR using forward primer […] (SEQ ID NO: 1) and reverse primer […] (SEQ ID NO: 2) artificially synthesized using human brain-derived cDNA (BD Bio science) as a template. The amplified product was digested with restriction enzymes EcoRI, NotI (TAKARA SHUZO CO. LTD.), and incorporated into the same site of pcDNA3.1(+) (Invitrogen) to construct pcDNA3.1(+)/human GluR1 flip gene. Human stargazin cDNA was amplified by PCR using forward primer […] (SEQ ID NO: 3) and reverse primer […] (SEQ ID NO: 4) artificially synthesized using human hippocampus cDNA as a template. The amplified product was digested with restriction enzymes XhoI, BamHI (TAKARA SHUZO CO. LTD.), and incorporated into the same site of pcDNA3.1(−) (Invitrogen) to construct pcDNA3.1 Zeo(−)/human stargazin gene.
CHO-K1 cells passaged in a culture medium (Ham's F12 medium (Invitrogen) added with 10% inactivated fetal bovine serum (Morgate) and penicillin, streptomycin (Invitrogen)) were detached with 0.05% trypsin, 0.53 mM EDTA (Invitrogen) diluted with D-PBS(−). The detached cells were suspended in a culture medium, and recovered by a centrifugation operation at 1,000 rpm. The recovered cells were suspended again in D-PBS(−), and added to a 0.4 cm electroporation cuvette (BioRad). pcDNA3.1(+)/human GluR1 flip gene (5 μg) and pcDNA3.1 Zeo(−)/human stargazin gene (15 μg) were added, and the mixture was introduced into CHO-K1 cells using Gene Pulser II (BioRad) under the conditions of 950 μFd, […]. The introduced cells were cultured overnight in a culture medium and, the next day, plated in a 96 well plate at 250 cells/well using a selection medium (culture medium added with Zeocin (Invitrogen) to 250 μg/mL). Clones showing drug resistance were selected, and GluR1 flip/stargazin expressing clones were selected by an assay method using calcium influx as an index as shown below.
CHO-K1/GluR1 flip/stargazin expressing cells were plated on a 96 well black transparent bottom plate (Costar) at 2×10^4 cells/well, and cultured in a 37° C., CO2 incubator (SANYO Electric Co., Ltd.) for 2 days. The medium in the cell plate was removed, and assay buffer A (D-MEM (Invitrogen), 0.1% BSA (Serogical Protein), 20 mM HEPES (Invitrogen)) was added at 50 μL/well. A calcium indicator (Calcium 4 Assay Kit, Invitrogen) added with 2.5 mM probenecid (Invitrogen) was added at 50 μL/well and the well was left standing in 37° C., CO2 incubator for 1 hr. The cell plate was set in CellLux (PerkinElmer), a mixture (50 μL) of 9 mM glutamic acid diluted with assay buffer B (HBSS (Invitrogen), 0.1% BSA, 20 mM HEPES) (final concentration 3 mM) and a test compound (test compound concentration 30 μM) was added, and the amount of change in fluorescence level in 3 min was measured. In the definition here, the amount of change in fluorescence level of well added with glutamic acid at final concentration 3 mM and 300 μM cyclothiazide (TOCRIS) is 100%, the amount of change in fluorescence level of well added only with glutamic acid at final concentration 3 mM is 0%, and the compound activity was calculated according to the following formula. activity(%)=(X−C)/(T−C)×100 T: amount of change in fluorescence level of well added with glutamic acid at final concentration 3 mM and 300 μM cyclothiazide C: amount of change in fluorescence level of well added only with glutamic acid at final concentration 3 mM X: amount of change in fluorescence level of well added with test compound
For the compound `O=S1(=O)CCN2CCCC(Oc3ccc4c(c3)CCCC4)C2=N1` (centres unmarked) [Example 238, 9-(5,6,7,8-tetrahydronaphthalen-2-yloxy)-3,4,6,7,8,9-hexahydropyrido[2,1-c][1,2,4]thiadiazine 2,2-dioxide], the “activity (%)” value stood at 87%.

Regarding `O=S1(=O)CCN2CCCC(c3ccc(-c4ccccc4Cl)cc3)C2=N1` (centres unmarked) [Example 221, 9-(2′-chlorobiphenyl-4-yl)-3,4,6,7,8,9-hexahydropyrido[2,1-c][1,2,4]thiadiazine 2,2-dioxide], the “activity (%)” value was 96%. Turning to `O=S1(=O)CCN2C=CC=C(C3CCC(c4ccccc4)CC3)C2=N1` (centres unmarked) [Example 185, 9-(4-phenylcyclohexyl)-3,4-dihydropyrido[2,1-c][1,2,4]thiadiazine 2,2-dioxide], the “activity (%)” value amounted to 36%. `COc1cc(Oc2ccc(C3CCCN4CCS(=O)(=O)N=C34)cc2)ccc1Cl` (centres unmarked) [Example 155, 9-[4-(4-chloro-3-methoxyphenoxy)phenyl]-3,4,6,7,8,9-hexahydropyrido[2,1-c][1,2,4]thiadiazine 2,2-dioxide]: the “activity (%)” value was 63%.

Take `O=S1(=O)CCN2CCCC(c3ccc(Oc4ccc(Br)c(C(F)(F)F)c4)cc3)C2=N1` (centres unmarked) [Example 142, 9-{4-[4-bromo-3-(trifluoromethyl)phenoxy]phenyl}-3,4,6,7,8,9-hexahydropyrido[2,1-c][1,2,4]thiadiazine 2,2-dioxide]: the “activity (%)” value turned out to be 70%.

Turning to `O=S1(=O)CCN2C=C(Cl)C=C(c3ccc(Oc4ccc(C(F)(F)F)nc4)cc3)C2=N1` [Example 256, 7-chloro-9-(4-{[6-(trifluoromethyl)pyridin-3-yl]oxy}phenyl)-3,4-dihydropyrido[2,1-c][1,2,4]thiadiazine 2,2-dioxide], the “activity (%)” value worked out at 86%. Same read-out and setting: the figure for `O=S1(=O)CCN2C=CC=C(c3ccc(OCC(F)(F)F)cc3)C2=N1` [Example 264, 9-[4-(2,2,2-trifluoroethoxy)phenyl]-3,4-dihydropyrido[2,1-c][1,2,4]thiadiazine 2,2-dioxide] is 80%. On the same count and under the same terms, the figure for `CC(F)(F)c1cccc(Oc2ccc(C3CCCN4CCS(=O)(=O)N=C34)cc2)c1` (centres unmarked) [Example 158, 9-{4-[3-(1,1-difluoroethyl)phenoxy]phenyl}-3,4,6,7,8,9-hexahydropyrido[2,1-c][1,2,4]thiadiazine 2,2-dioxide] is 76%; for `O=C1CCC(Oc2ccc(C3=CC=CN4CCS(=O)(=O)N=C34)cc2)CC1` [Example 244, 4-[4-(2,2-dioxido-3,4-dihydropyrido[2,1-c][1,2,4]thiadiazin-9-yl)phenoxy]cyclohexanone] it is 76%. With `O=S1(=O)CCN2CCCC(c3ccc(OC(F)(F)F)cc3)C2=N1` (centres unmarked) [Example 179, 9-[4-(trifluoromethoxy)phenyl]-3,4,6,7,8,9-hexahydropyrido[2,1-c][1,2,4]thiadiazine 2,2-dioxide], the “activity (%)” value is on record as 69%. As to `CCc1ccc(Oc2ccc(C3CCCN4CCS(=O)(=O)N=C34)cc2)cc1` (centres unmarked) [Example 161, 9-[4-(4-ethylphenoxy)phenyl]-3,4,6,7,8,9-hexahydropyrido[2,1-c][1,2,4]thiadiazine 2,2-dioxide], the “activity (%)” value came to 57%.

Take `Cc1cc(F)ccc1Oc1ccc(C2CCCN3CCS(=O)(=O)N=C23)cc1` (centres unmarked) [Example 144, 9-[4-(4-fluoro-2-methylphenoxy)phenyl]-3,4,6,7,8,9-hexahydropyrido[2,1-c][1,2,4]thiadiazine 2,2-dioxide]: the “activity (%)” value came to 76%.

With `CC1CC(c2ccc(Oc3cccc(C(C)(F)F)c3)cc2)C2=NS(=O)(=O)CCN2C1` (racemic) [Example 172, 9-{4-[3-(1,1-difluoroethyl)phenoxy]phenyl}-7-methyl-3,4,6,7,8,9-hexahydropyrido[2,1-c][1,2,4]thiadiazine 2,2-dioxide], the “activity (%)” value stood at 74%. Turning to `O=S1(=O)CCN2CCC[C@@H](c3ccc(Oc4ccc(Br)cc4)cc3)C2=N1` [Example 228, (9S)-9-[4-(4-bromophenoxy)phenyl]-3,4,6,7,8,9-hexahydropyrido[2,1-c][1,2,4]thiadiazine 2,2-dioxide], the “activity (%)” value is reported as 78%.

Still in this assay, the particulars now being: test compound 30 μM with glutamic acid final 3 mM, change in fluorescence in 3 min, 100% = 3 mM glutamic acid + 300 μM cyclothiazide, 0% = 3 mM glutamic acid only.
Consider `CCCOc1ccc(C2=CC=CN3CCS(=O)(=O)N=C23)cc1F` [Example 349, 9-(3-fluoro-4-propoxyphenyl)-3,4-dihydropyrido[2,1-c][1,2,4]thiadiazine 2,2-dioxide], for which the “activity (%)” value stood at 83%. For the compound `Cc1ccc(C(F)(F)c2ccc(C3CCCN4CCS(=O)(=O)N=C34)cc2)cc1` (centres unmarked) [Example 138, 9-{4-[difluoro(4-methylphenyl)methyl]phenyl}-3,4,6,7,8,9-hexahydropyrido[2,1-c][1,2,4]thiadiazine 2,2-dioxide], the “activity (%)” value was 71%. For the compound `CCc1cccc(Oc2ccc(C3CCCN4CCS(=O)(=O)N=C34)cc2)c1` (centres unmarked) [Example 132, 9-[4-(3-ethylphenoxy)phenyl]-3,4,6,7,8,9-hexahydropyrido[2,1-c][1,2,4]thiadiazine 2,2-dioxide], the “activity (%)” value is recorded as 75%.

In the case of `Cc1ccccc1Oc1ccc(C2CCCN3CCS(=O)(=O)N=C23)cc1` (centres unmarked) [Example 116, 9-[4-(2-methylphenoxy)phenyl]-3,4,6,7,8,9-hexahydropyrido[2,1-c][1,2,4]thiadiazine 2,2-dioxide], the “activity (%)” value worked out at 69%. On to `O=S1(=O)CCN2C=CC=C(c3ccc(OC4CC4)cc3)C2=N1` [Example 70, 9-[4-(cyclopropyloxy)phenyl]-3,4-dihydropyrido[2,1-c][1,2,4]thiadiazine 2,2-dioxide], for which the “activity (%)” value is recorded as 86%. For the compound `COc1cccc(Oc2ccc(C3=CC=CN4CCS(=O)(=O)N=C34)cc2)c1` [Example 90, 9-[4-(3-methoxyphenoxy)phenyl]-3,4-dihydropyrido[2,1-c][1,2,4]thiadiazine 2,2-dioxide], the “activity (%)” value stood at 78%.

Consider `O=S1(=O)CCN2CCCC(c3ccc(-c4ccccc4)s3)C2=N1` (centres unmarked) [Example 57, 9-(5-phenylthiophen-2-yl)-3,4,6,7,8,9-hexahydropyrido[2,1-c][1,2,4]thiadiazine 2,2-dioxide], for which the “activity (%)” value worked out at 86%.

For the compound `COc1ccc2ccc(OC3CCCN4CCS(=O)(=O)N=C34)cc2c1` (centres unmarked) [Example 60, 9-[(7-methoxynaphthalen-2-yl)oxy]-3,4,6,7,8,9-hexahydropyrido[2,1-c][1,2,4]thiadiazine 2,2-dioxide], the “activity (%)” value amounted to 63%.

As to `Cc1ccc(Oc2ccc(C3CCCN4CCS(=O)(=O)N=C34)cc2)cc1` (centres unmarked) [Example 109, 9-[4-(4-methylphenoxy)phenyl]-3,4,6,7,8,9-hexahydropyrido[2,1-c][1,2,4]thiadiazine 2,2-dioxide], the “activity (%)” value is on record as 88%. As to `CCCOc1ccc(C2CCCN3CCS(=O)(=O)N=C23)cc1F` (centres unmarked) [Example 350, 9-(3-fluoro-4-propoxyphenyl)-3,4,6,7,8,9-hexahydropyrido[2,1-c][1,2,4]thiadiazine 2,2-dioxide], the “activity (%)” value is given as 74%. With `CC(C)c1ccc(C(=O)NC2=CC=CN3CCS(=O)(=O)N=C23)cc1` [Example 37, N-(2,2-dioxido-3,4-dihydropyrido[2,1-c][1,2,4]thiadiazin-9-yl)-4-(1-methylethyl)benzamide], the “activity (%)” value was 95%. As for `O=S1(=O)CCN2C=CC=C(c3ccc(OC4CCCCCC4)cc3)C2=N1` [Example 88, 9-[4-(cycloheptyloxy)phenyl]-3,4-dihydropyrido[2,1-c][1,2,4]thiadiazine 2,2-dioxide], the “activity (%)” value was 75%.
